Experiment [1] has as its target T1, Cdc7 (Homo sapiens, UniProt O00311). Kind of experiment: Cdc7 cell pharmacodynamics assay Method 2: pS40MCM2 levels in HCT116 cells. The format is cell-based. On the set-up: endogenous in cells. Particulars: 18 hours treatment, read-out: Biomarker Method 2 (pEC50) (converted). The source says:
This protocol describes a method to investigate the inhibition of Cdc7 activity by measuring pS40MCM2 levels in cells, after treatment with compounds.
• HCT116 cells (ATCC, #CCL-247) • McCoys 5A with L-glutamine (Cellgro, #10-050-CV) • 10% FCS (Cellgro, #35-010-CV) • D-PBS without CaCl2 and MgCl2 (Cellgro, #21-031-CV) • Trypsin/EDTA (Cellgro, #25-052-CL) • BSA (Calbiochem, 126593) • Cell Extraction Buffer (Invitrogen FNN0011) • Protease inhibitor cocktail (Sigma P-2714) • PMSF 0.3M stock in DMSO (Sigma P7626) • Antibody—rabbit pMCM2 Ser40 (Abeam, AB133243) • Antibody—goat MCM2 (Bethyl #A300-122A) • Antibody—goat Anti Rabbit IgG HRP (Thermo, 31462) • SuperSignal ELISA Pico Chemiluminescent Substrate (Perbio Science UK Ltd 37069) • 10×PBS (Growcells, MRGF-6236) • Triton X100 (Sigma, P-T8787) • DMSO (Fisher, D128-1) • 2-Propanol (J. T. Baker, 9095-03) Method • Seed 1×10^6 HCT116 cells into each of two 175 cm^2 flask containing 30 mL Cell Growth Media and incubate at 37° C., 5% CO2 for 3 days. • Harvest the cells from one T175 cm^2 flask and count. • Dilute with Cell Growth Media to a cell density of 2×10^5. Dispense 100 μL to each well (20,000 HCT116 cells/well) of TC treated 96-well plate(s). • Allow cells to settle overnight in incubator set at 37° C. and 5% CO2. • Cell treatment: Transfer 0.25 μL/well from the compound plate to the wells of the cell plate(s). This is a 1:400 dilution of compound in the assay. • Once all cells are treated place the cells back to the incubator and incubate for 18 hours. • Dilute the capture antibody (total MCM2 #A300-122A) 1 in 250 in the required volume of PBS (5 mL per assay plate, plus 5 mL for dead volume) and add 50 μL to each well of a Hybond plate except wells A12 & B12. Seal the plate and incubate at room temperature fora minimum of 2 hours. • Defrost aliquot of Invitrogen Cell Extraction Buffer (FNN0011) on ice and supplement with appropriate volume of both Sigma protease inhibitor cocktail (P-2714) and PMSF (final cone 1 mM from a 1 M stock in DMSO). • After the 6 hour or 18 hour cell treatment time, tap out the media from the assay plates and place them in the −70° C. freezer for at least 5 minutes. • Flick out the remaining liquid in the previously prepared capture Ab plate(s) and add 200 μL 2% BSA per well. Incubate for 1 hour at room temperature. • Remove plates from freezer and add 20 μL of ice cold complete lysis buffer. Incubate cells for 30 minutes at 4° C. • Add 30 μL per well 2% BSA • At the end of the 1 hour incubation, wash the Capture/ELISA plate(s) with Wash Buffer on the BioTek plate washer. • Transfer 40 μL per well of the lysis plate(s) to the same wells in the Capture/ELISA plate. Incubate cells overnight at 4° C. • At the end of the overnight incubation, wash the ELISA plate(s) with Wash Buffer on BioTek plate washer. • Prepare Detection Antibody Buffer and dispense 50 μL to all wells of ELISA plate(s) except wells G1 & H1. Cover plate and incubate at room temperature for 2 hours with gentle shaking. • At the end of the 2 hour incubation, wash the ELISA plate(s) with Wash Buffer on the BioTek plate washer. • Prepare the Conjugated Antibody Buffer and dispense 50 μL to all wells of ELISA plate(s). • Cover the plate and incubate at room temperature for 1 hour with gentle shaking. • At the end of the 1 hour incubation, wash the ELISA plate(s) with Wash Buffer on the BioTek plate washer. • Prepare Substrate Buffer and dispense 50 μL to all wells of ELISA plate(s). • Incubate for a minimum of 10 minutes and read plates on the EnVision 2100 Multilabel Reader (Mirror: Luminescence (404) & Luminescence 700 (212); Measurement Height: 6.5 mm; Measurement Time: 0.2 s). Method 3

A further experiment deals with Cdc7/Dbf4 (Homo sapiens, UniProt O00311). Briefly: Cdc7 biochemical assay Method 2: Cdc7/Dbf4 Enzyme TR-FRET Assay measuring pS40MCM2. As to conditions: pS40 MCM2 peptide, 1 μM ATP, 25° C., 120 minutes, read-out: Biochemical Method 2 (pIC50) (converted). The procedure:
This protocol describes a method for assaying a compounds' ability to inhibit Cdc7 activity by measuring pS40MCM2 levels in a Cdc7/Dbf4 Enzyme TR-FRET Assay.
2.5 nM Cdc7/Dbf4 was incubated with 100 nM of biotin-labelled peptide 35-TDALTS(pS)PGRDLP in the presence of 1 μM ATP at 25° C. for 120 minutes. The phosphorylation of the peptide was detected using TR-FRET. Anti-Mcm2 (pS40) antibody, Terbium anti-rabbit secondary antibody and Streptavidin-Alexa Fluor488 form the detection system.
A general note: In TR-FRET formats the signal depends on donor and acceptor labels being close together.

The target of a further experiment is Cdc7/ASK (Homo sapiens, UniProt O00311). Kind of experiment: Cdc7 biochemical assay Method 1: 384 well ELISA, MCM2 whole protein substrate, Phospho MCM2 (S53) antibody. On the set-up: purchased. As to conditions: ATP 2 μM, 90 minutes, read-out: Biochemical method 1 (pIC50) (converted). In short, it runs like this: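 Commercial Cdc7/ASK phosphorylates plate-bound MCM2 with 2 μM ATP in Tris pH 8.5/MgCl2/DTT, 4% DMSO, 90 min at room temperature. Phospho-MCM2 (S53) detected by antibody ELISA with AP/PNPP absorbance. Inhibition normalised to DMSO and no-enzyme controls; IC50 from curve fit.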
Cdc7/ASK, sequence (O00311 whole entry): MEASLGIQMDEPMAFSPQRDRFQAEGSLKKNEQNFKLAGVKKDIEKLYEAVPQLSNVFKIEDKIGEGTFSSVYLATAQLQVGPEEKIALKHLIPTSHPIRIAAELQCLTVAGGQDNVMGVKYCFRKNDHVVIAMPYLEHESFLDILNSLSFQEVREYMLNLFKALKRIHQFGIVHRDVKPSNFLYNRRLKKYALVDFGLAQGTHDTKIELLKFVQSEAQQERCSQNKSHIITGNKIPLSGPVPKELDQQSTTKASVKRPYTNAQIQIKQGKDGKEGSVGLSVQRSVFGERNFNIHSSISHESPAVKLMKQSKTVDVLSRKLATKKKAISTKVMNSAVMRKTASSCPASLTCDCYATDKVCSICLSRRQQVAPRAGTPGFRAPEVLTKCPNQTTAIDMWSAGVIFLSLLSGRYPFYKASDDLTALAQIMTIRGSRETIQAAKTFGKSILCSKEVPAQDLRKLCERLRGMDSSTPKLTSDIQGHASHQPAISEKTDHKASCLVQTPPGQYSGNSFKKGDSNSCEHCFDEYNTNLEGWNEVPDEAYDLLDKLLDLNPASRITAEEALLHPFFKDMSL
Cdc7/ASK, sequence (Q9UBU7 whole entry partner): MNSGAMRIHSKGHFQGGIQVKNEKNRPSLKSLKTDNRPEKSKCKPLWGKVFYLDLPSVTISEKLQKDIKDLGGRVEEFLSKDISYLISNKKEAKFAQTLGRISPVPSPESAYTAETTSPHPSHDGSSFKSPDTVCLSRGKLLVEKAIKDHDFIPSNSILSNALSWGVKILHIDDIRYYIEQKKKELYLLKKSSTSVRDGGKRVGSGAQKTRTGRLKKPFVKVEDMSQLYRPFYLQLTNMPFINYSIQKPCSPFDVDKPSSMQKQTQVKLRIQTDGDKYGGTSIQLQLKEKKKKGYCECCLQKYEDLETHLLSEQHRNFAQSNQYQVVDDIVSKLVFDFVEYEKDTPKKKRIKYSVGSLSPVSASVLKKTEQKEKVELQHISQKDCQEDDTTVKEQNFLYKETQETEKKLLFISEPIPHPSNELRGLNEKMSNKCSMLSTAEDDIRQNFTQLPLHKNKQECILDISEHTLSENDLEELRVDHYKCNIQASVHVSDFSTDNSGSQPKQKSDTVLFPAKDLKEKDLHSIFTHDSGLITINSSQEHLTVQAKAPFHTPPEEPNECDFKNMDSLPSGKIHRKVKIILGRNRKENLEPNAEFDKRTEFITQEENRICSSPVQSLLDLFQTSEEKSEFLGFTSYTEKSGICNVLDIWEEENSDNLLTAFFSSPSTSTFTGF
A general note: In an ELISA, binding on a coated surface is turned into a signal by an enzyme label.

For experiment [2], the target named is T1, Cdc7. Kind of experiment: Cdc7 cell pharmacodynamics assay Method 1: pS53MCM2 levels in HCT116 cells. The format is cell-based. Set-up: endogenous in cells. Particulars: 6 hours treatment, read-out: Biomarker Method 1 (pEC50) (converted). An excerpt: This protocol describes a method to investigate the inhibition of Cdc7 activity of compounds by measuring pS53MCM2 levels in cells after treatment.
• HCT116 cells (wild type P53 positive) • McCoys 5A media (PAA Laboratories Ltd, E15-022) • 10% FCS (Sera Laboratories International Ltd, EU000F Batch: 108005) • 100× L-Glutamine (Invitrogen, 25030-024) • D-PBS without CaCl2 and MgCl2 (Invitrogen, ref. 14190-094) • Trypsin/EDTA (Invitrogen 25300-054) • 2% BSA in PBS • Cell Extraction Buffer (Invitrogen FNN0011) • Protease inhibitor cocktail (Sigma P-2714) • PMSF 0.3M stock in DMSO (Sigma P7626) • Antibody—rabbit pMCM2 Ser53 (Bethyl #A300-756A) • Antibody—goat MCM2 (Bethyl #A300-122A) • Antibody—goat Anti Rabbit IgG HRP (Perbio Science UK Ltd 31462) • 1×PBS • FACE Wash buffer (0.02% Triton X100 in 1×PBS) • SuperSignal ELISA Pico Chemiluminescent Substrate (Perbio Science UK Ltd 37070) Method • 72 hours prior to the start of the experiment plate 1×10^6 HCT116 cells in a 150 cm^2 flask in complete McCoys 5A media (+10% FCS+1× L-glutamine). • Plate 20,000 HCT116 cells per well in standard TC treated 96 well plate in 100 μL complete McCoys 5A media. • Allow cells to settle overnight in incubator set at 37° C. and 5% CO2. • Remove intermediate plate from fridge and place at 37° C. overnight to allow to equilibrate. • Cell treatment: cell assay plate 100 μL; daughter to cell transfer volume 3.33 μL; daughter volume 45 μL; mother plate to daughter volume 5 μL. • Once all cells are treated remove the cells to the incubator and incubate for 6 hours. • Dilute the capture antibody (total MCM2 #A300-122A) 1 in 250 in the required volume of PBS (5 mL per assay plate) and add 50 μL to each well of a Hybond plate excluding wells 12E to 12H. In these wells add 50 μL PBS. Seal the plate and incubate at room temperature fora minimum of 2 hours. • Defrost aliquot of Invitrogen Cell Extraction Buffer (FNN0011) on ice and supplement with appropriate volume of both Sigma protease inhibitor cocktail (P-2714) and PMSF (final cone 1 mM from a […] in DMSO). • After the 6 hour cell treatment time tap out the media from the assay plates and place them in the −70° C. freezer for at least 5 minutes. • Remove plates from freezer and add 20 μL of ice cold complete lysis buffer on ice. Incubate cells for 30 minutes at 4° C. • Add 80 μL per well 2% BSA. • Transfer 80 μL from the lysis plate to the same wells in the capture/ELISA plate. Cover with plate seal and incubate plates overnight at 4° C. • Wash plates with PBS, remove any residual remaining liquid and add 50 μL per well of pMCM2 Ser53 antibody (#A300-756A) diluted 1 in 100 in 2% BSA. Cover plate and incubate at room temperature for 2 hours with gentle shaking. • Wash plates with PBS, remove any residual remaining liquid and Incubate with 50 μL goat anti rabbit antibody (1 in 800 dilution in 2% BSA) for 1 hour at room temperature. • Wash plates with PBS, remove any residual remaining liquid and add 50 μL mixed SuperSignal Pico substrate. • Incubate each plate for 5 minutes at room temperature shielding the plates from direct light (with a cover plate). Read plates with the luminescent detection. Method 2

SMILES strings stand for the structures.

T1 sequence (O00311 whole entry): as the sequence (O00311 whole entry) above
T1 sequence (Q9UBU7 whole entry partner): as the sequence (Q9UBU7 whole entry partner) above
Cdc7/Dbf4, sequence (O00311 whole entry): as the sequence (O00311 whole entry) above
Cdc7/Dbf4, sequence (Q9UBU7 whole entry partner): as the sequence (Q9UBU7 whole entry partner) above

As to `CC1CNCCN1c1nc(-c2c[nH]c3ncccc23)[nH]c(=O)c1Cl` (stereo in doubt) [Compound 55, 5-chloro-4-[(2R)-2-methylpiperazin-1-yl]-2-(1H-pyrrolo[2,3-b]pyridin-3-yl)-1H-pyrimidin-6-one 2,2,2-trifluoroacetic acid], the EC50 on Cdc7 [1] was 100 nM. As to `Cc1[nH]ncc1-c1nc(C2CCOCC2)c(Cl)c(=O)[nH]1` [Compound 16, 5-chloro-2-(3-methyl-1H-pyrazol-4-yl)-4-tetrahydropyran-4-yl-1H-pyrimidin-6-one], the results for the IC50 on Cdc7/Dbf4 and on Cdc7/ASK were 7.24 nM and 2.75 nM, respectively. With `Cc1ncsc1-c1nc(N2CCN[C@@H](C(C)C)C2)c(Cl)c(=O)[nH]1` [Compound 39, 5-chloro-4-[(3S)-3-isopropylpiperazin-1-yl]-2-(4-methylthiazol-5-yl)-1H-pyrimidin-6-one], the figures for the IC50 at Cdc7/Dbf4 and on Cdc7/ASK were 7.41 nM and 21.4 nM, respectively. Further, the EC50 on Cdc7 [2] was 339 nM. As to `CC1(C)CNCCN1c1nc(-c2cn[nH]c2C(F)(F)F)[nH]c(=O)c1Cl` [Compound 46, 5-chloro-4-(2,2-dimethylpiperazin-1-yl)-2-[5-(trifluoromethyl)-1H-pyrazol-4-yl]-1H-pyrimidin-6-one], at Cdc7/Dbf4, the IC50 is 1.66 nM. The EC50 at Cdc7 [1] was 151 nM.

`Cc1[nH]ncc1-c1nc(N2CCNC[C@H]2C)c(Cl)c(=O)[nH]1` [Compound 48, 5-chloro-4-[(2R)-2-methylpiperazin-1-yl]-2-(5-methyl-1H-pyrazol-4-yl)-1H-pyrimidin-6-one]: the IC50 on Cdc7/Dbf4 was 2.24 nM. Moreover, the EC50 on Cdc7 [1] is 457 nM. With `Cc1[nH]ncc1-c1nc(N2CCOCC2)c(Cl)c(=O)[nH]1` [Compound 51, 5-chloro-2-(5-methyl-1H-pyrazol-4-yl)-4-morpholino-1H-pyrimidin-6-one], the IC50 on Cdc7/Dbf4 is 5.89 nM. The same measure, in the same setting: for `C[C@@H]1COCCN1c1nc(-c2cnn3ccccc23)[nH]c(=O)c1Cl` [Compound 54, 5-chloro-4-[(3R)-3-methylmorpholin-4-yl]-2-pyrazolo[1,5-a]pyridin-3-yl-1H-pyrimidin-6-one] the value was 72.4 nM.
